Test results from patent US5525627A, “Esters of acyl carnitines with long-chain aliphatic alcohols and pharmaceutical compositions containing same having antimycotic activity” (Sigma-Tau Industrie Farmaceutiche Riunite S.p.A., priority 1992, dated 1996).

Tests used:
filamentous fungi = assay: MIC / MFC for filamentous fungi, all strains; type: cell-based, Aspergillus, Fusarium, Mucor, Penicillium; conditions: versus susceptible strains; read-out: Mean MIC values
Procedure, shortened: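 Filamentous fungi (Aspergillus, Fusarium, Mucor, Penicillium strains) inoculated with conidia from 72-hour Sabouraud agar cultures, harvested in Sabouraud medium with Tween 80, at 5.0×10^4 CFU/ml. Dilution procedure and MIC/MFC evaluation followed the yeast-like fungi method.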

[1] = Test 2: weight of murine lymphoid organs after repeated oral administrations; type: in vivo, mice (male B6 D2 F1); conditions: 100 mg/kg/day oral, 7 consecutive days; x ± S.E.
Method: Test 2: Evaluation of the effect of repeated oral administrations of ST 722 on the weight of murine lymphoid organs (spleen and thymus).
Male B6 D2 F1 mice (C. River) aged 7 weeks (7-8 animals each group) were orally treated with the substance ST 722 at the dose of 100 mg/kg/day for 7 consecutive days. Twenty-four hours after the last administration, the animals were sacrificed, the organs removed and weighed.

[2] = tested on: Candida albicans (ATCC 2091); assay: MIC for yeast and yeast-like strains; type: cell-based; conditions: ATCC2091, 48 hours, 35° C., read-out: Minimal Inhibitory Concentration (MIC)
Procedure, shortened: (§1)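 Antifungal activity is tested in microtiter plates in which equal volumes of diluted yeast suspension and compound solution are combined. Yeast Nitrogen Base with asparagine (0.15%), glucose (1.0%) and 0.165 M MOPS serves as the medium, and the final inoculum is about 5.0×10^4 CFU/ml.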

[3] = tested on: Candida parapsilosis (ISS 1); assay: MIC for yeast and yeast-like strains; type: cell-based; conditions: Lodderomyces parapsilosis; 48 hours, 35° C.; read-out: Minimal Inhibitory Concentration (MIC)
Procedure, shortened: as §1

Candida albicans (ISS 1) = assay: MIC for yeast and yeast-like strains; type: cell-based; conditions: 48 hours, 35° C., read-out: Minimal Inhibitory Concentration (MIC)
Procedure, shortened: as §1

Candida glabrata (ISS 1) = assay: MIC for yeast and yeast-like strains; type: cell-based; conditions: Nakaseomyces glabratus; 48 hours, 35° C.; read-out: Minimal Inhibitory Concentration (MIC)
Procedure, shortened: as §1

[4] = tested on: Candida tropicalis (ISS 1); assay: MIC for yeast and yeast-like strains; type: cell-based; conditions: 48 hours, 35° C., read-out: Minimal Inhibitory Concentration (MIC)
Procedure, shortened: as §1

[5] = tested on: Candida pseudotropicalis (EC 1); assay: MIC for yeast and yeast-like strains; type: cell-based; conditions: Kluyveromyces marxianus; 48 hours, 35° C.; read-out: Minimal Inhibitory Concentration (MIC)
Procedure, shortened: as §1

[6] = tested on: Candida guilliermondii (ISS 1); assay: MIC for yeast and yeast-like strains; type: cell-based; conditions: Meyerozyma guilliermondii; 48 hours, 35° C.; read-out: Minimal Inhibitory Concentration (MIC)
Procedure, shortened: as §1

[7] = tested on: Cryptococcus neoformans (ISS 1); assay: MIC for yeast and yeast-like strains; type: cell-based; conditions: 48 hours, 35° C., read-out: Minimal Inhibitory Concentration (MIC)
Procedure, shortened: as §1

dermatophytic fungi = assay: MIC / MFC for dermatophytic fungi, all strains; type: cell-based, Trichophyton, Microsporum, Epidermophyton; conditions: versus susceptible strains
Method: The following strains were used: Trichophyton menthagrophytes ATCC 9533, Trichophyton rubrum IHEM 4274, Microsporum canis IHEM 3522, Epydermophyton floccosum IHEM 3495. The tested substances were: ST 722, ST 1033, ST 1037, ST 1050, ST 1051, ST 1052,. ST 1053.
The assay was performed following the same procedure described for the yeasts, by using 7-day fungi cultures grown at 30° C. in Potato Dextrose agar, and harvested with Sabouraud broth and Tween 80 (0.5%).
After washing with Yeast Nitrogen Base, supplemented with asparagine and glucose (as carbon source), the fungal suspension was fragmented using a tissue grinder until the largest clumps or aggregates were undetectable within the grinder. This fungal suspension was then appropriately diluted in YNB to yield a concentration of 2.0×10^5 infective particles/ml (small mycelium fragments, micro-and macroaleuriospores).
Volumes of 100 μl both of the fungal suspensions and substance solutions, two-fold serially diluted in assay medium, were distributed into each well of a microtiter plate (96 wells, round bottom), which was incubated at 35° C. for 96 hours.

Candida albicans (PG) = assay: MIC and MFC for yeast and yeast-like strains; type: cell-based
Procedure, shortened: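 Candida, Cryptococcus, Saccharomyces and Torulopsis strains tested by broth microdilution in Yeast Nitrogen Base with 0.15% asparagine and 1.0% glucose, buffered with 0.165 M MOPS; final inoculum about 5.0×10^4 CFU/ml from overnight (Cryptococcus 48-hour) Sabouraud cultures. MFC from spot-transfer of wells without visible growth onto Sabouraud agar.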

[8] = Test 1: body and lymphoid organ weight in SRBC immunized mice; type: in vivo, mice (male B6 D2F1); conditions: 100 mg/kg/day per os, day -2 through day +2; x ± S.E.
Method: Test 1: Evaluation of the "in vitro-ex vivo" effect of repeated oral administrations of ST 722 on the primary antibody production (Jerne test) in the spleen of SRBC (Sheep Red Blood Cells) immunized mice.
Male B6 D2F1 mice (C. River) aged 8 weeks (6 animals each group) were utilized.
The substance (ST 722) was administered per os at the dose of 100 mg/kg/day from day -2 through day +2 (immunization at day 0). The animals were immunized by intraperitoneal route with a concentration of 1.0×10^8 cells/mouse in 0.2 ml of sterile saline.
Five days later, spleens to be submitted to teasing process were removed from the animals sacrificed by cervical dislocation. After standardization at 1.0×10^7 cells/ml. the splenocytes (0.1 ml) were mixed with warm agar-Hank's (2 ml) and 10% SRBC in PBS (0.2 ml) and seeded in Petri dishes (samples tested in triplicates) and incubated at 37° C. for 60 min.

Which results are given for `CCCCCCCCCCCOC(=O)C[C@H](C[N+](C)(C)C)OC(=O)CC(C)C` [ST 722, isovaleryl-L-carnitine undecyl ester chloride]?
MIC (filamentous fungi): 16.4 µg/mL; Body weight [1]: 22.74 ± 0.37 g; Spleen weight [1]: 77.88 ± 2.38 mg; Thymus weight [1]: 52.88 ± 3.20 mg; MIC [2]: 3.12 µg/mL; MIC [3]: 6.25 µg/mL; MIC (Candida albicans (ISS 1)): 1.56 µg/mL; MIC (Candida glabrata (ISS 1)): 6.25 µg/mL; MIC [4]: 3.12 µg/mL; MIC [5]: 6.25 µg/mL; MIC [6]: 6.25 µg/mL; MIC [7]: 3.12 µg/mL; MIC (dermatophytic fungi): 28.1 µg/mL; MFC (Candida albicans (PG); 48 h, C. albicans PG): 3.12 µg/mL; MIC (Candida albicans (PG); 48 hours, 35° C., read-out: Minimal Inhibitory Concentration (MIC)): 3.12 µg/mL; Body weight [8]: 25.12 ± 0.77 g; Spleen weight [8]: 94.33 ± 4.12 mg; Thymus weight [8]: 59.50 ± 3.62 mg
